Data reported in patent publication EP0384722A1, “Chemical compositions” (PITMAN-MOORE LIMITED, priority 1989, dated 1990).
Where two headings read alike, the source gives them in different places. Each block holds one compound with its values, some of them ahead of it.

Columns and labels:
[1] = Comparison of bioavailability of Compound A and Trimethoprim (TMP) administered by i/v injection, cats; assay type: in vivo; settings: serum, i/v injection at 2 mg/kg; for Est.t1/2 / half-life: cats; for half-life / concentration at 0 h / concentration at 1 h / concentration at 3 h / concentration at 5 h / concentration at 7 h / concentration at 24 h: female, cat, intravenous; for half-life: read-out: Est.t1/2 (converted); for concentration at 0 h / concentration at 1 h / concentration at 3 h / concentration at 5 h / concentration at 7 h / concentration at 24 h: 2 mg/kg; for concentration at 0 h: 0 hours post inj.; for concentration at 1 h: 1 hours post inj.; for concentration at 3 h: 3 hours post inj.; for concentration at 5 h: 5 hours post inj.; for concentration at 7 h: 7 hours post inj.; for concentration at 24 h: 24 hours post inj.
Method: Two young adult female cats, bodyweight around 3 kg, were given i/v injections at 2 mg/kg of TMP or Compound A, using 3 mg/base ml aqueous solutions.

[2] = Comparison of bioavailability of Compound A and Trimethoprim (TMP) administered by i/v injection, dogs; assay type: in vivo; settings: i/v injection at 2 mg/kg; for half-life: both sexes, dog, read-out: Est.t1/2 (converted); for half-life / concentration at 0 h / concentration at 1 h / concentration at 3 h / concentration at 5 h / concentration at 7 h / concentration at 24 h / concentration at 30 h / concentration at 48 h: beagle, intravenous, serum; for concentration at 0 h: 0 hours post inj.; for concentration at 1 h: 1 hours post inj.; for concentration at 3 h: 3 hours post inj.; for concentration at 5 h: 5 hours post inj.; for concentration at 7 h: 7 hours post inj.; for concentration at 24 h: 24 hours post inj.; for concentration at 30 h: 30 hours post inj.; for concentration at 48 h: 48 hours post inj.
Method: One male beagle dog, 13.5 kg and one female beagle, 11.1kg, both aged about 18 months, received i/v injections (cephalic vein) of the test compounds at 2mg base/kg, using 15mg base /ml aqueous solutions.

[3] = cat 1, read-out: Serum conc. of TMP
[4] = cat 2, read-out: Serum conc. of TMP
[5] = female, dog F, read-out: Serum conc. of TMP
[6] = male, dog M, read-out: Serum conc. of TMP
[7] = cat 3, read-out: Serum conc. of Compound A
[8] = cat 4, read-out: Serum conc. of Compound A
[9] = female, dog F, read-out: Serum conc. of Compound A
[10] = male, dog M, read-out: Serum conc. of Compound A

- Est.t1/2 [1]: 0.75 h
- half-life [1]: 0.75 h
- concentration at 0 h [1, 3]: 0 ng/mL
- concentration at 1 h [1, 3]: 460 ng/mL
- concentration at 3 h [1, 3]: 60 ng/mL
- concentration at 5 h [1, 3]: 0 ng/mL
- concentration at 7 h [1, 3]: 0 ng/mL
- concentration at 24 h [1, 3]: 0 ng/mL
- concentration at 0 h [1, 4]: 0 ng/mL
- concentration at 1 h [1, 4]: 440 ng/mL
- concentration at 3 h [1, 4]: 84 ng/mL
- concentration at 5 h [1, 4]: 0 ng/mL
- concentration at 7 h [1, 4]: 0 ng/mL
- concentration at 24 h [1, 4]: 0 ng/mL
- half-life ([2]; dogs): 2.6 h
- concentration at 0 h [2, 5]: 0 ng/mL
- concentration at 1 h [2, 5]: 1200 ng/mL
- concentration at 3 h [2, 5]: 740 ng/mL
- concentration at 5 h [2, 5]: 310 ng/mL
- concentration at 7 h [2, 5]: 210 ng/mL
- concentration at 24 h [2, 5]: 0 ng/mL
- concentration at 30 h [2, 5]: 0 ng/mL
- concentration at 48 h [2, 5]: 0 ng/mL
- concentration at 0 h [2, 6]: 0 ng/mL
- concentration at 1 h [2, 6]: 1100 ng/mL
- concentration at 3 h [2, 6]: 800 ng/mL
- concentration at 5 h [2, 6]: 400 ng/mL
- concentration at 7 h [2, 6]: 260 ng/mL
- concentration at 24 h [2, 6]: 0 ng/mL
- concentration at 30 h [2, 6]: 0 ng/mL
- concentration at 48 h [2, 6]: 0 ng/mL
Structure (SMILES): COc1cc(Cc2cnc(N)nc2N)cc(OC)c1OC [TMP, trimethoprim]

- Est.t1/2 [1]: 2.4 h
- half-life [1]: 2.4 h
- concentration at 0 h [1, 7]: 0 ng/mL
- concentration at 1 h [1, 7]: 320 ng/mL
- concentration at 3 h [1, 7]: 160 ng/mL
- concentration at 5 h [1, 7]: 100 ng/mL
- concentration at 7 h [1, 7]: 72 ng/mL
- concentration at 24 h [1, 7]: 0 ng/mL
- concentration at 0 h [1, 8]: 0 ng/mL
- concentration at 1 h [1, 8]: 310 ng/mL
- concentration at 3 h [1, 8]: 140 ng/mL
- concentration at 5 h [1, 8]: 86 ng/mL
- concentration at 24 h [1, 8]: 0 ng/mL
- half-life ([2]; dogs): 15 h
- concentration at 0 h [2, 9]: 0 ng/mL
- concentration at 1 h [2, 9]: 410 ng/mL
- concentration at 3 h [2, 9]: 340 ng/mL
- concentration at 5 h [2, 9]: 300 ng/mL
- concentration at 7 h [2, 9]: 290 ng/mL
- concentration at 24 h [2, 9]: 124 ng/mL
- concentration at 30 h [2, 9]: 100 ng/mL
- concentration at 48 h [2, 9]: 46 ng/mL
- concentration at 0 h [2, 10]: 0 ng/mL
- concentration at 1 h [2, 10]: 240 ng/mL
- concentration at 3 h [2, 10]: 270 ng/mL
- concentration at 5 h [2, 10]: 260 ng/mL
- concentration at 7 h [2, 10]: 250 ng/mL
- concentration at 24 h [2, 10]: 110 ng/mL
- concentration at 48 h [2, 10]: 39 ng/mL
Structure (SMILES): Cc1cc(Cc2cnc(N)nc2N)c2cccnc2c1N(C)C [Compound A, 2,4-diamino-5-(8-dimethylamino-7-methyl-5-quinolylmethyl) pyrimidine]
- half-life in comparison with TMP ([2]; dogs): greatly extended half-life in comparison with TMP
